Legend:
[1] = maximum tolerated doses (20%); cited from earlier work
[2] = humans, oral dose of 600 mg; cited from earlier work
[3] = normal airway surface, pH of 7.0-7.2; cited from earlier work
[4] = oral, treatment periods of approximately 12-24 weeks, patients with chronic bronchitis; cited from earlier work
WT mice = conditions: mouse, in vivo; cited from earlier work
[5] = Rheology (elasticity, viscosity) of concentrated HBE airway mucus, cone-and-plate rheometer; set-up: species or system human; conditions: for elasticity compared with the DTT group / viscosity compared with the DTT group: 200 mM NACA and NAC versus 20 mM DTT, all p<0.05
Description: In the Example 1, the inventors assessed the ability of NACA to reduce the rheological properties of a concentrated (cystic fibrosis-like) mucus, making it more flowable. In this phase, NACA was compared to both a classical clinical reducing agent (N-acetylcysteine; NAC) as well as a potent laboratory reducing agent (Dithiothreitol; DTT). The studies in this phase of the project were performed at a single dose, 200 mM for the mono-thiols NACA and NAC and 20 mM for the di-thiol DTT. Methods. In this study, a single preparation of human bronchial epithelial (HBE) airway mucus at 5.4% solids (i.e., wet-to-dry ratio) was utilized as the test mucus sample. This sample was thawed on ice and split into 4 separate groups. The appropriate amount of test agent (see above) was added to each mucus sample: (1) PBS (vehicle control), (2) NACA, (3) NAC, and (4) DTT. Samples were incubated for 60 minutes at 37ÀöC prior to analysis. Note, the final mucus concentration of each sample (after test agent addition) was ˜4.9% solids. The viscoelastic (i.e., rheological) properties of each mucus preparation was made using a cone-and-plate rheometer (DH3; TA Instruments). For each study, 100 ? of sample was loaded onto the rheometer. Stress controlled sweeps (for viscous and elastic modulus determination) were performed over frequencies from 10-2-102 Hz. To assess yield stress, creep-recovery studies were performed at stresses from 0.05 to 1.5 Pa. Next, the cohesive stress of each sample (i.e., how much force it takes to tear the mucus) was obtained using a peel tester (see Button et. al, PNAS 2018). Studies here were performed at a peel rate of 1 mm/sec.

[6] = cited from earlier work
[7] = while intubated; cited from earlier work
[8] = Cohesive strength of HBE airway mucus, peel tester; set-up: species or system human; conditions: 200 mM NACA and NAC, 20 mM DTT
Description: In the Example 1, the inventors assessed the ability of NACA to reduce the rheological properties of a concentrated (cystic fibrosis-like) mucus, making it more flowable. In this phase, NACA was compared to both a classical clinical reducing agent (N-acetylcysteine; NAC) as well as a potent laboratory reducing agent (Dithiothreitol; DTT). The studies in this phase of the project were performed at a single dose, 200 mM for the mono-thiols NACA and NAC and 20 mM for the di-thiol DTT.
Methods. In this study, a single preparation of human bronchial epithelial (HBE) airway mucus at 5.4% solids (i.e., wet-to-dry ratio) was utilized as the test mucus sample. This sample was thawed on ice and split into 4 separate groups. The appropriate amount of test agent (see above) was added to each mucus sample: (1) PBS (vehicle control), (2) NACA, (3) NAC, and (4) DTT. Samples were incubated for 60 minutes at 37ÀöC prior to analysis. Note, the final mucus concentration of each sample (after test agent addition) was ˜4.9% solids.
The viscoelastic (i.e., rheological) properties of each mucus preparation was made using a cone-and-plate rheometer (DH3; TA Instruments). For each study, 100 ? of sample was loaded onto the rheometer. Stress controlled sweeps (for viscous and elastic modulus determination) were performed over frequencies from 10-2-102 Hz. […]

mucins = conditions: 20 mM; cited from earlier work
[9] = target: T1, glutamate cysteine ligase (GCL, EC 6.3.2.2) (Homo sapiens, UniProt P48506); conditions: read-out: Km of GCL for substrate; cited from earlier work
T1 sequence (P48506 1-637): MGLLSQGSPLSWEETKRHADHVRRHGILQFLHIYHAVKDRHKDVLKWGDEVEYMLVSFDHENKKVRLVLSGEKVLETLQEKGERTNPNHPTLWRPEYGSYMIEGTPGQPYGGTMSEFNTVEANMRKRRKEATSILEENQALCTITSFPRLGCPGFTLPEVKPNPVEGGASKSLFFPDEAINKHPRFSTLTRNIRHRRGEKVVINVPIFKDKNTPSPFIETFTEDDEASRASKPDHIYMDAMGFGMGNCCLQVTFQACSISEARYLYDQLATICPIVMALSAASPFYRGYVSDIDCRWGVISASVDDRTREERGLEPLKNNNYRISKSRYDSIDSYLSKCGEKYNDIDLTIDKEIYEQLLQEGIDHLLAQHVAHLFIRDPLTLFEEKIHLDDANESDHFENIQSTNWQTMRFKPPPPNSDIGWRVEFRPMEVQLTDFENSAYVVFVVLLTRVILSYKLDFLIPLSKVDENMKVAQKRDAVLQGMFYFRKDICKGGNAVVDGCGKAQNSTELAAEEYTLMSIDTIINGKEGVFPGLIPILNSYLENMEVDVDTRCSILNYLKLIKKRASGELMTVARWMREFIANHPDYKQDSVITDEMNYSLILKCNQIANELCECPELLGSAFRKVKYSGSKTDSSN
T1 sequence (P48507 1-274 partner): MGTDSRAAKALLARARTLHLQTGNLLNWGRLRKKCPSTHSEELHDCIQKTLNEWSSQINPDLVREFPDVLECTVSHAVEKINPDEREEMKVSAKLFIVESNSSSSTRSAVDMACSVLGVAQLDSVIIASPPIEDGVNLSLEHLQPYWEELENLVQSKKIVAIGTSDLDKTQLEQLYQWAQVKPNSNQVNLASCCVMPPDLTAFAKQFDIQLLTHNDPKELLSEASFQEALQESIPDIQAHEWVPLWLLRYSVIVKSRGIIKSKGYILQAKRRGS

In the case of CC(=O)N[C@@H](CS)C(=O)O [NAC, N-acetyl-L-cysteine], the “mucus reduction in CF subjects” value [1] is given as “did not produce mucus reduction”, the “time after administration at which no NAC is detectable” value [2] is given as 10 to 12 h and the “fraction in the inactive protonated form” value [3] is given as 99%. The “risk of adverse effects compared with placebo” value [4] was “without increasing the risk of adverse effects”, the “risk of exacerbations compared with placebo” value [4] was “reduces the risk of exacerbations” and the “symptoms compared with placebo” value [4] was “improves symptoms”. The “airway toxicity in WT mice” value (WT mice) was “induced epithelial cell damage and acute neutrophilic responses”, the “elasticity compared with the DTT group” value [5] was “significantly less than the DTT group” and the “viscosity compared with the DTT group” value [5] was “significantly less than the DTT group”. For the same molecule, the “removal of mucus plugs” value ([6]; high concentrations, delivered topically via bronchoscopy, subjects with CF or tracheostomies) was “could remove mucus plugs”, the “lung function following inhalation treatment” value ([6]; inhalation, high NAC concentrations (20%, 1,200 mOsm) aerosolized) was “modest improvements in lung function” and the “efficacy for atelectasis/mucus plugging” value [7] was “ineffective”.

For O[C@H](CS)[C@H](O)CS (racemic) [DTT, Dithiothreitol], the “cohesive strength, comparison between test agents” value [8] is given as “slightly better than NAC and NACA” and the reduction of mucins (mucins) is given as “fully reduce mucins”.

For N[C@@H](CS)C(=O)O [cysteine, L-cysteine], the Km [9] is listed as 100 to 300 µM.

With CC(=O)N[C@@H](CS)C(N)=O the “reduction of cohesive strength of mucus” value ([8]; peel rate 1 mm/sec) was “very effective”, the “elasticity compared with the DTT group” value [5] was “significantly less than the DTT group” and the “viscosity compared with the DTT group” value [5] was “significantly less than the DTT group”. For the same molecule, the “elasticity and viscosity, NACA compared with NAC” value ([5]; 200 mM dose) was “no significant difference” and the “reducing the viscoelasticity of mucus” value ([5]; 200 mM dose) was “very effective”.

B1: Dornasealfa: mucoactive agent reviewed for adults with acute lung conditions (protein, UniProt P24855 23-282, looked up)
Deoxyribonuclease-1: LKIAAFNIQTFGETKMSNATLVSYIVQILSRYDIALVQEVRDSHLTAVGKLLDNLNQDAPDTYHYVVSEPLGRNSYKERYLFVYRPDQVSAVDSYYYDDGCEPCGNDTFNREPAIVRFFSRFTEVREFAIVPLHAAPGDAVAEIDALYDVYLDVQEKWGLEDVMLMGDFNAGCSYVRPSQWSSIRLWTSPTFQWLIPDSADTTATPTHCAYDRIVVAGMLLRGAVVPDSALPFNFQAAYGLSDQLAQAISDHYPVEVMLK
For B1, the “efficacy for atelectasis/mucus plugging” value [7] is listed as “ineffective”.
